Experimental data reported in patent publication US20230107538A1, “CYCLOALKYL-CONTAINING CARBOXYLIC ACIDS AND USES THEREOF” (LIMINAL BIOSCIENCES LIMITED, priority 2019, published 2023).

Legend:
Format in all cases: cell-based
human GPR40 = biological target: T1, human GPR40 (Homo sapiens, UniProt O14842); experiment: GPR40 β-arrestin 2 recruitment BRET, agonist mode; conditions: HEK293 cells, read-out: GPR40 (agonist mode) EC50 β-arr2
T1 construct: host or cells: HEK293 (transient)
Source text: (§1) Plasmids: The cDNA clones for human GPR40 and GPR84 receptors, human β-arrestin 2, Gαi2, Gβ1, and Gγ2 were obtained from the cDNA Resource Center (www.cdna.org). A plasmid encoding the human GPR120-L (long isoform) cDNA was obtained from R&D Systems. GPR120-S (short isoform) was generated by replacing the BglII-BsgI fragment from GPR120-L by a gBlock gene fragment (Integrated DNA Technologies, IA) lacking the DNA sequence corresponding to the extra 16 amino acids found in the third intracellular loop of the long form. GFP10 (F64L, S147P, S202F and H231L variant of Aequorea victoria GFP) gBlocks gene fragments (Integrated DNA Technologies) and linker were inserted in frame at the N-terminus of human Gγ2, or at the C-terminus of GPR40 and GPR120. Rluc8 (A55T, C124A, S130A, K136R, A143M, M185V, M253L, and S287L variant of the Renilla luciferase) gBlocks gene fragment (Integrated DNA Technologies) was inserted with linkers in between residues 91 and 92 of Gα2 or at the N-terminus of β-arrestin 2.
(§2) BRET measurements: a Gαi bioluminescence resonance energy transfer (BRET) biosensor was used to directly monitor GPR84-mediated activation of Gαi. The Gαi biosensor consists of a Rluc8-tagged Gαi2 subunit, a GFP10-tagged Gγ2 subunit, and an untagged Gβ1. Agonist stimulation and ensuing GPR84 activation triggers a physical separation between the RLuc8-Gαi donor and the GFP10-Gγ2 acceptor, resulting in a decrease in BRET signal whose amplitude is correlated to ligand efficacy. A BRET-based assay that allows the monitoring of Rluc8-tagged β-arrestin 2 recruitment to GFP10-tagged GPR40 or GFP10-tagged GPR120 was used to assess GPR40 or GPR120 activation. Transiently transfected HEK293 cells were seeded in 96-well white clear bottom Costar microplates (Fisher Scientific) coated with poly-D-lysine (Sigma-Aldrich) and left in culture for 24 hours. Cells were washed once with Tyrode's buffer (140 mmol/L NaCl, 1 mmol/L CaCl2, 2.7 mmol/L KCl, 0.49 mmol/L MgCl2, 0.37 mmol/L NaH2PO4, 5.6 mmol/L glucose, 12 mmol/L NaHCO3, and 25 mmol/L HEPES, pH 7.5) and the Rluc8 substrate coelenterazine 400A (Prolume, Lakeside, Ariz.) added at a final concentration of 5 μmol/L in Tyrode's buffer. Ligands were incubated with cells at room temperature for 5 minutes (G protein) or 25 minutes (β-arrestin) before reading BRET signal. In GPR84 antagonist mode, cells were treated with 125 μmol/L of the GPR84 agonist sodium decanoate in combination with test compounds. BRET readings were collected using an Infinite M1000 microplate reader (Tecan, Morrisville, N.C.). BRET^2 readings between Rluc8 and GFP10 were collected by sequential integration of the signals detected in the 370 to 450 nm (Rluc8) and 510 to 540 nm (GFP10) windows. The BRET signal was calculated as the ratio of light emitted by acceptor (GFP10) over the light emitted by donor (Rluc8). The values were corrected to net BRET by subtracting the background BRET signal obtained in cells transfected with Rluc8 constructs alone. Ligand-promoted net BRET values were calculated by subtracting vehicle-induced net BRET from ligand-induced net BRET.

human GPR84 [1] = biological target: T2, human GPR84 (Homo sapiens, UniProt Q9NQS5); experiment: GPR84 Gαi BRET biosensor, agonist activity; conditions: HEK293 cells
T2 construct: host or cells: HEK293 (transient)
Source text: as §1, §2

human GPR120 = biological target: T3, human GPR120 (Homo sapiens, UniProt Q5NUL3); experiment: GPR120 β-arrestin 2 recruitment BRET, agonist mode; conditions: HEK293 cells, read-out: GPR120 (agonist mode) EC50 β-arr2
T3 sequence (Q5NUL3 1-361): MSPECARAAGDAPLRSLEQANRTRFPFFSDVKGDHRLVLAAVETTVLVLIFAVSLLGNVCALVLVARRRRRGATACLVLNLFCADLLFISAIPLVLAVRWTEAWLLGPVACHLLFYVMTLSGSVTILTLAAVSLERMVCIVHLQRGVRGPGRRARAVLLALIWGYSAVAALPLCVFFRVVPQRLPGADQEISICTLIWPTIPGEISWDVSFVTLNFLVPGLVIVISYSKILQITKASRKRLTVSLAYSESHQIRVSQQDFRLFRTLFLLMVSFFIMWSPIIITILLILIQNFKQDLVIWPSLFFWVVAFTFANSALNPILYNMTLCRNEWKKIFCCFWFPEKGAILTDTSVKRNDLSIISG
Source text: as §1, §2

human GPR84 [2] = biological target: T2, human GPR84; experiment: GPR84 Gαi BRET biosensor, antagonist mode (125 μmol/L sodium decanoate); conditions: HEK293 cells, with 125 μmol/L sodium decanoate
Source text: as §1, §2

T1 sequence (O14842 whole entry): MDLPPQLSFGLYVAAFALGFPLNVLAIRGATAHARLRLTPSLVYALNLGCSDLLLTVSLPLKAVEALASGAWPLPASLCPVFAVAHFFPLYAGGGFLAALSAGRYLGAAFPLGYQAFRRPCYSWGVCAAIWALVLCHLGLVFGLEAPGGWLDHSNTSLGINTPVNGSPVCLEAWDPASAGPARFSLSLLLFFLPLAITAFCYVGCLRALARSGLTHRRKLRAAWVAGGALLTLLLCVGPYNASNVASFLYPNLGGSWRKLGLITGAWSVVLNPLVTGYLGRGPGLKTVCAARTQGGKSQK
T2 sequence (Q9NQS5 whole entry): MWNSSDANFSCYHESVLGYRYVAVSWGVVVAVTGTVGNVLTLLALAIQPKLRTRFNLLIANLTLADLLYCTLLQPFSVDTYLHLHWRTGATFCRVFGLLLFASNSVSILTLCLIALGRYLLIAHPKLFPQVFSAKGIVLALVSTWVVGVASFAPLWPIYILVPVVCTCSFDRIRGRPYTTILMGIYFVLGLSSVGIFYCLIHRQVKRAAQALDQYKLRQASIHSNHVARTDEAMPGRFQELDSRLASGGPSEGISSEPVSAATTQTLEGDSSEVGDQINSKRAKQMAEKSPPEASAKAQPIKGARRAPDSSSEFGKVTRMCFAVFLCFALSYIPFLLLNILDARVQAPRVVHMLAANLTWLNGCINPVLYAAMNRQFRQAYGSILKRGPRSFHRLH

Row | Compound | EC50 (human GPR40) | EC50 (human GPR84 [1]) | EC50 (human GPR120) | IC50 (human GPR84 [2])
1 | CCCCCCCC1CC1C(=O)O (stereo not shown) | 49 µM | 13 µM | > 250 µM | 
2 | CCCCCCC1CC1C(=O)C(=O)O (stereo not shown) | 321 µM | 36.9 µM | > 500 µM | 
3 | CC1(C)CC1CCCCCCCC(=O)O (stereo not shown) | 11 µM | 5 µM | 77 µM | 
4 | [2H]C1([2H])C(CCCCCCC)C1CC(=O)[O-].[Na+] (stereo not shown) | 149 µM | 23 µM | 299 µM | 
5 | CCCCCC1CCC1CC(=O)O (stereo not shown) | 83 µM |  | > 500 µM | 173 µM
6 | CCCCCCC1C(CC(=O)O)C1(F)F (stereo not shown) | 126 µM |  | 383 µM | 117 µM
7 | CCCCCCCC1(CC(=O)O)CC1 | 122 µM |  | ≥ 500 µM | > 500 µM
8 | CCCCCC1CC/C1=C/C(=O)O (stereo not shown) | 211 µM |  | 307 µM | 180 µM
9 | CCCCCCC1C(CC(=O)O)C1(C)C (stereo not shown) [drawing 299] | 30 µM |  | > 125 µM | 56 µM
10 | CCCCCC1C(CCC(=O)O)C1(Br)Br (stereo not shown) | 16 µM |  | 45 µM | 20 µM
11 | CCCCCCCC1(CC(=O)O)CCC1 | 21 µM |  | > 63 µM | > 63 µM
12 | CCCCCC1CC(CC(=O)O)C1 (stereo not shown) | 87 µM | 35 µM | > 500 µM | 
13 | CCCC[C@H]1CC[C@H](CCC(=O)O)CC1 | 21 µM |  | 22 µM | 22 µM
14 | CCCCCC1C(CCC(=O)O)C1(C)C (stereo not shown) | 27 µM |  | > 63 µM | > 63 µM
15 | CCCCC[C@H]1CCC[C@@H](CC(=O)O)C1 | 12 µM |  | 377 µM | 56 µM
16 | CCCCCCCCC1(C(=O)O)CC1 | 164 µM |  | 245 µM | 115 µM
17 | CCCCCC1CC(=CC(=O)O)C1 (stereo not shown) | 70 µM | < 16 µM | 88 µM | 
18 | CCCCCCC1C(CC(=O)O)C1(C)C (stereo not shown) [drawing 311] | 174 µM |  | > 500 µM | 468 µM
19 | CC1(C)CC1CCCCC/C=C/C(=O)O (stereo not shown) | 22 µM | 6 µM | 61 µM | 
20 | CCCCCC=C1CC(C(=O)O)C1 (stereo not shown) | 252 µM |  | > 500 µM | 131 µM
21 | CC1(C)CC1CCCCCC1CC1C(=O)O (stereo not shown) | 14.3 µM |  | 35 µM | 
22 | CCCCCCC1CC1CC(=O)O (stereo not shown) | 170 µM | < 16 µM | 272 µM | 
23 | CCCCCC1CC(CC(=O)O)C1(C)C (stereo not shown) | 15 µM |  | 90 µM | 49 µM
24 | CCCCCCC1OC1CC(=O)O (stereo not shown) | > 500 µM | 114 µM | > 500 µM | 
25 | CCCCCCC1CC(C(=O)O)C1 (stereo not shown) | 63.4 µM | 73 µM | 382 µM | 
26 | CCCCCCC1C(CC(=O)O)C1(C)C (stereo not shown) [drawing 302] | > 63 µM |  | > 63 µM | 
27 | CCCCCCC1C(CCC(=O)O)C1(C)C (stereo not shown) | 10 µM |  | > 31 µM | 9 µM
28 | CCCCCC1C(CCC(=O)O)C1(F)F (stereo not shown) | 133 µM | 79 µM | > 500 µM | 
